Measurements reported in patent publication US7968595B2, “Substituted 4-aryl-chromene as activator of caspases and inducer of apoptosis and as antivascular agent and the use thereof” (Cytovia, Inc., priority 2006, dated 2011).

Tests used:
[1] = tested on: MX1 human breast cancer tumors; assay: In vivo antitumor activity in MX-1 model, combination with cisplatin and doxorubicin; set-up: species or system mice
Experimental: MX1 human breast cancer tumors were obtained from the NCI-FCRDC and maintained as tumors in nude mice. Tumor bits were implanted with a trocar into the right mammary area of female nu/nu mice and allowed to grow to an average size of 200-250 mg, about 12 days after being implanted. Animals were randomized and assigned to study groups of 8-10 animals/group. Body weight were determined and tumor size were measured by calipers and converted to volume by the standard formula of Vol=L×W^2/2. Compound 1R was formulated in 7% PEG400/9% Tween80/84% D5W and administered IV via the tail vein at the indicated days and doses. Day 1 of the study was the first day of treatment. Survival time was the number of days for the tumor to reach 1000 mg or death, whichever occurred earliest. Median survival is the median for the group.
Mice implanted with MX1 human breast cancer tumors were treated with compound 1R as described in EXAMPLE 11. Cisplatin was administered IP whereas doxorubicin was administered IV at the indicated doses.

[2] = tested on: T-47D; assay: Caspase activation assay in T-47D cells; assay type: cell-based; settings: Homo sapiens; T47D cells, 24 h incubation; read-out: Caspase activation potency EC50 T47D
Experimental: (§1) Human breast cancer cell lines T-47D and ZR-75-1, human colon cancer cell line DLD-1 and human non-small cell lung cancer cell line H1299 were grown according to media component mixtures designated by American Type Culture Collection+10% FCS (Invitrogen Corporation), in a 5% CO2−95% humidity incubator at 37° C. T-47D and ZR-75-1 cells were maintained at a cell density between 30 and 80% confluency at a cell density of 0.1 to 0.6×10^6 cells/mL. Cells were harvested at 600×g and resuspended at 0.65×10^6 cells/mL into appropriate media+10% FCS. An aliquot of […] of cells was added to a well of a 96-well microtiter plate containing 5 μl of a 10% DMSO in RPMI-1640 media solution containing about 0.16 to 10 μM of 2,7,8-triamino-4-(3-bromo-4,5-dimethoxy-phenyl)-3-cyano-4H-chromene (1) or other test compounds (0.016 to 1 μM final). An aliquot of 45 μl of cells was added to a well of a 96-well microtiter plate containing 5 μl of a 10% DMSO in RPMI-1640 media solution without test compound as the control sample. The samples were mixed by agitation and then incubated at 37° C. for 24 h in a 5% CO2−95% humidity incubator. After incubation, the samples were removed from the incubator and 50 μl of a solution containing 20 μM of N-(Ac-DEVD)-N′-ethoxycarbonyl-R110 (SEQ ID No:1) fluorogenic substrate (Cytovia, Inc.; U.S. Pat. No. 6,335,429), 20% sucrose (Sigma), 20 mM DTT (Sigma), 200 mM NaCl (Sigma), 40 mM Na PIPES buffer pH 7.2 (Sigma), and 500 μg/ml lysolecithin (Calbiochem) was added. The samples were mixed by agitation and incubated at room temperature. Using a fluorescent plate reader (Model 1420 Wallac Instruments), an initial reading (T=0) was made about 1-2 min after addition of the substrate solution, employing excitation at 485 nm and emission at 530 nm, to determine the background fluorescence of the control sample. After the 3 h incubation, the samples were read for fluorescence as above (T=3 h).
(§2) The Relative Fluorescence Unit values (RFU) were used to calculate the sample readings as follows: RFU(T=3h)−Control RFU(T=0)=Net RFU(T=3h)
(§3) The activity of caspase cascade activation was determined by the ratio of the net RFU value for 2,7,8-triamino-4-(3-bromo-4,5-dimethoxy-phenyl)-3-cyano-4H-chromene or other test compound to that of control samples. The EC50 (nM) was determined by a sigmoidal dose-response calculation (Prism 2.0, GraphPad Software Inc.).

[3] = tested on: H1299; assay: Caspase activation assay in H1299 cells; assay type: cell-based; settings: Homo sapiens, NCI-H1299, 24 h incubation, read-out: Caspase activation potency EC50 H1299
Experimental: as §1, §2, §3

[4] = tested on: ZR-75-1; assay: Caspase activation assay in ZR-75-1 cells; assay type: cell-based; settings: Homo sapiens, ZR751 cells, 24 h incubation, read-out: Caspase activation potency EC50 ZR751
Experimental: as §1, with “After incubation, the samples were removed from the incubator and 50 μl of a solution containing 20 μM of N-(Ac-DEVD)-N′-ethoxycarbonyl-R110 (SEQ ID No:1) fluorogenic substrate (Cytovia, Inc.; U.S. Pat. No. 6,335,429), 20% sucrose (Sigma), 20 mM DTT (Sigma), 200 mM NaCl (Sigma), 40 mM Na PIPES buffer pH 7.2 (Sigma), and 500 μg/ml lysolecithin (Calbiochem) was added. The samples were mixed by agitation and incubated at room temperature.” left out
as §2, §3

[5] = tested on: DLD-1; assay: Caspase activation assay in DLD-1 cells; assay type: cell-based; settings: Homo sapiens, 24 h incubation, read-out: Caspase activation potency EC50 DLD-1
Experimental: as §1, with “After incubation, the samples were removed from the incubator and 50 μl of a solution containing 20 μM of N-(Ac-DEVD)-N′-ethoxycarbonyl-R110 (SEQ ID No:1) fluorogenic substrate (Cytovia, Inc.; U.S. Pat. No. 6,335,429), 20% sucrose (Sigma), 20 mM DTT (Sigma), 200 mM NaCl (Sigma), 40 mM Na PIPES buffer pH 7.2 (Sigma), and 500 μg/ml lysolecithin (Calbiochem) was added. The samples were mixed by agitation and incubated at room temperature.” left out
as §2, §3

[6] = tested on: solid tumor cells; assay: Caspase cascade activation and induction of apoptosis, overall statement; assay type: cell-based, human; settings: summary of Table I
Experimental: as §1, with “After incubation, the samples were removed from the incubator and 50 μl of a solution containing 20 μM of N-(Ac-DEVD)-N′-ethoxycarbonyl-R110 (SEQ ID No:1) fluorogenic substrate (Cytovia, Inc.; U.S. Pat. No. 6,335,429), 20% sucrose (Sigma), 20 mM DTT (Sigma), 200 mM NaCl (Sigma), 40 mM Na PIPES buffer pH 7.2 (Sigma), and 500 μg/ml lysolecithin (Calbiochem) was added. The samples were mixed by agitation and incubated at room temperature.” left out
as §3

[7] = cisplatin 2 mg/kg, day 2, 9, IP
[8] = doxorubicin 2 mg/kg, day 2, 9, IV

SMILES	EC50 [2] [nM]	EC50 [3] [nM]	also measured
N.N.[Cl][Pt][Cl] [Cisplatin, reference compound]			Median survival [1, 7]: 27 days; Number of tumor free mice at day 91 [1, 7]: 1 of 7; Median survival ([1]; cisplatin 2 mg/kg, day 2, IP): 11 days; Number of tumor free mice at day 91 ([1]; cisplatin 2 mg/kg, day 2, IP): 0 of 9
COc1cc(C2C(C#N)=C(N)Oc3c2ccc(NC(=O)CN)c3N)cc(Br)c1OC (stereo not shown) [C]	160	273	
COc1cc(C2C(C#N)=C(N)Oc3c2ccc(NC(=O)C2CCCN2)c3N)cc(Br)c1OC (stereo not shown) [Compound E]	3900	5330	
COc1cc(C2C(C#N)=C(N)Oc3c2ccc(NC(=O)[C@H](N)CCCCN)c3N)cc(Br)c1OC (stereo partly shown) [G]	1420	3750	
COc1cc([C@H]2C(C#N)=C(N)Oc3c2ccc(NC(=O)CNC(=O)OCC2c4ccccc4-c4ccccc42)c3N)cc(Br)c1OC [Compound 5, (9H-fluoren-9-yl)methyl((R)-2,8-diamino-4-(3-bromo-4,5-dimethoxyphenyl)-3-cyano-4H-chromen-7-ylcarbamoyl)methylcarbamate]	2440		
COc1cccc2c1C(=O)c1c(O)c3c(c(O)c1C2=O)C[C@@](O)(C(=O)CO)C[C@@H]3O[C@H]1C[C@H](N)[C@H](O)[C@H](C)O1 [Doxorubicin, reference compound]			Median survival [1, 8]: 11 days; Number of tumor free mice at day 91 [1, 8]: 0 of 9
COc1cc(C2C(C#N)=C(N)Oc3c2ccc(N)c3N)cc(Br)c1OC (racemic) [Compound 1, 2,7,8-Triamino-4-(3-bromo-4,5-dimethoxy-phenyl)-3-cyano-4H-chromene]	42	120	EC50 [4]: 35 nM; EC50 [5]: 78 nM
COc1cc([C@@H]2C(C#N)=C(N)Oc3c2ccc(N)c3N)cc(Br)c1OC [Compound 1S, S(+)-2,7,8-triamino-4-(3-bromo-4,5-dimethoxy-phenyl)-3-cyano-4H-chromene]	2490	3210	EC50 [4]: 2010 nM; EC50 [5]: 4570 nM; Caspase cascade activator and inducer of apoptosis (in words) [6]: inactive isomer
COc1cc([C@H]2C(C#N)=C(N)Oc3c2ccc(NC(=O)[C@H](C)NC(=O)OCC2c4ccccc4-c4ccccc42)c3N)cc(Br)c1OC [Compound 3, (9H-fluoren-9-yl)methyl(S)-1-((R)-2,8-diamino-3-cyano-4-(3-bromo-4,5-dimethoxyphenyl)-4H-chromen-7-ylcarbamoyl)ethylcarbamate]	2880		
COc1cc(C2C(C#N)=C(N)Oc3c2ccc(NC(=O)CN(C)C)c3N)cc(Br)c1OC (stereo not shown) [A]	2540	3340	
COc1cc(C2C(C#N)=C(N)Oc3c2ccc(NC(=O)C(N)COC(C)=O)c3N)cc(Br)c1OC (stereo not shown) [F]	4120	5670	
COc1cc(C2C(C#N)=C(N)Oc3c2ccc(NC(=O)C[N+](C)(C)C)c3N)cc(Br)c1OC (stereo not shown) [D]	> 10000	> 10000	
COc1cc([C@H]2C(C#N)=C(N)Oc3c2ccc(NC(=O)[C@H](C)N)c3N)cc(Br)c1OC [Compound 4, (2S)-2-Amino-N—((R)-2,8-diamino-4-(3-bromo-4,5-dimethoxyphenyl)-3-cyano-4H-chromen-7-yl)propanamide]	52		Caspase cascade activator and inducer of apoptosis (in words) [6]: potent caspase cascade activator and inducer of apoptosis
COc1cc(C2C(C#N)=C(N)Oc3c2ccc(NC(=O)CCCN)c3N)cc(Br)c1OC (stereo not shown) [B]	5500	5780	
COc1cc([C@H]2C(C#N)=C(N)Oc3c2ccc(NC(=O)CN)c3N)cc(Br)c1OC [Compound 6, 2-Amino-N—((R)-2,8-diamino-4-(3-bromo-4,5-dimethoxyphenyl)-3-cyano-4H-chromen-7-yl)acetamide]	60		
